In patent US20040152750A1, “Novel glucagon antagonists” (priority 2002, published 2004):

## O=C(O)CCNC(=O)c1ccc(N(Cc2ccc(C3=CCCCC3)cc2)C(=O)/C=C/c2cccc(OC(F)(F)F)c2)cc1 [Example 211, 3-(4-{(4-Cyclohex-1-enylbenzyl)-[3-(3-trifluoromethoxyphenyl)acryloyl]amino}benzoylamino) -propionic acid]
  melting point: 178 to 180 °C
